Source: patent publication US5770382A, “Tricyclic retinoids, methods for their production and use” (Ligand Pharmaceuticals, Inc., priority 1995, dated 1998)

Tests used:
[1] = biological target: T1, RXRβ (Mus musculus, UniProt P28704); assay: Co-transfection assay, RXRβ agonist activity; type: cell-based; conditions: CV-1 cells, 40 hours; read-out: RXRβ Pot (potency, EC50)
T1 construct: expressed in transfected cells; host or cells: CV-1 (African green monkey kidney fibroblasts)
T1 sequence (P28704 1-520): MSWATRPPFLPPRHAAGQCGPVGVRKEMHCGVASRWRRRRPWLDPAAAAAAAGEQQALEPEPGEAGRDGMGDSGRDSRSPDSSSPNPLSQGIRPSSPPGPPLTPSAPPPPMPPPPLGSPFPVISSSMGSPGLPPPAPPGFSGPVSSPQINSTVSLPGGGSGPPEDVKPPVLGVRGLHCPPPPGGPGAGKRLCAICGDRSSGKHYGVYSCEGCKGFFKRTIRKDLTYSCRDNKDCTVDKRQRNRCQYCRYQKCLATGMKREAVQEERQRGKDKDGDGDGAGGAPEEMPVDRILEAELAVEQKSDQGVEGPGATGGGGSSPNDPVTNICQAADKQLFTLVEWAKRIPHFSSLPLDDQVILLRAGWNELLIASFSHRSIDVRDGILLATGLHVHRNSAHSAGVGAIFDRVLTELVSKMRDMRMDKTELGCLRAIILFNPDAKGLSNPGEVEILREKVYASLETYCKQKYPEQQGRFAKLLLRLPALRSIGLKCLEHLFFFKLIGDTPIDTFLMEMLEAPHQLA

[2] = system: RXRs; assay: Co-transfection assay, summary for the RXRs; type: cell-based
Description: Utilizing the "cis-trans" or "co-transfection" assay described by Evans et al., Science, 240:889-95 (May 13, 1988), the disclosure of which is herein incorporated by reference, the retinoid compounds of the present invention were tested and found to have strong, specific activity as either selective RAR agonists, selective RXR agonists, or as pan-agonist activators of both RAR and RXR receptors. This assay is described in further detail in U.S. Pat. Nos. 4,981,784 and 5,071,773, the disclosures of which are incorporated herein by reference.
The co-transfection assay provides a method for identifying functional agonists which mimic, or antagonists which inhibit, the effect of native hormones, and quantifying their activity for responsive IR proteins. In this regard, the co-transfection assay mimics an in vivo system in the laboratory. Importantly, activity in the co-transfection assay correlates very well with known in vivo activity, such that the co-transfection assay functions as a qualitative and quantitative predictor of a tested compounds Ln vivo pharmacology. See, e.g., T. Berger et al. 41 J. Steroid Biochem. Molec. […]
The co-transfection assay can detect small molecule agonists or antagonists of target IRs. […] This activity can be conveniently measured, e.g., by increasing luciferase production, which reflects compound-dependent, IR-mediated increases in reporter transcription. […]

With CC(/C=C/C=C1/CC(C)(C)Oc2cc3c(cc21)C(C)(C)CCC3(C)C)=C\C(=O)O [Compound 104b, (2E,4E)-3-Methyl-6-(2,3,6,7,8,9-hexahydro-2,2,6,6,9,9-hexamethylbenzo[b]-chromen-4-ylidene)-hexa-2,4-dienoic acid] the EC50 [1] was 20 nM and the “RXR activity / selectivity (in words)” value [2] was “potent and selective RXR compound”.
